Measured values published in the CheMixHub viscosity set.
± gives the uncertainty stated by the source.

Assay: xn = mol fraction of the nth substance listed

CCCCCCCC[N+](C)(CCCCCCCC)CCCCCCCC.[Cl-] + COC(=O)OC
viscosity (298.15 K, 101 kPa, x1 = 0.65): 534.7 ± 110 mPa·s

Oc1cccc(O)c1 + CCCCO
viscosity (293.15 K, 101 kPa, x1 = 0.28): 19.75 ± 0.1 mPa·s

CCCCC(=O)O + c1ccccc1
viscosity (298.15 K, 101 kPa, x1 = 0.04): 0.62 ± 0.016 mPa·s | viscosity (298.15 K, 101 kPa, x1 = 0.078): 0.639 ± 0.017 mPa·s | viscosity (298.15 K, 101 kPa, x1 = 0.12): 0.662 ± 0.017 mPa·s | viscosity (298.15 K, 101 kPa, x1 = 0.16): 0.687 ± 0.018 mPa·s | viscosity (298.15 K, 101 kPa, x1 = 0.34): 0.825 ± 0.022 mPa·s | viscosity (298.15 K, 101 kPa, x1 = 0.43): 0.92 ± 0.024 mPa·s | viscosity (298.15 K, 101 kPa, x1 = 0.53): 1.062 ± 0.028 mPa·s | viscosity (298.15 K, 101 kPa, x1 = 0.75): 1.436 ± 0.038 mPa·s

CCCCOCCOCCOCCCC + CCCO
viscosity (298.15 K, 101.33 kPa, x1 = 0.0034): 1.944 ± 0.015 mPa·s | viscosity (298.15 K, 101.33 kPa, x1 = 0.0097): 1.937 ± 0.015 mPa·s | viscosity (298.15 K, 101.33 kPa, x1 = 0.0158): 1.93 ± 0.015 mPa·s | viscosity (298.15 K, 101.33 kPa, x1 = 0.0252): 1.917 ± 0.015 mPa·s | viscosity (298.15 K, 101.33 kPa, x1 = 0.0426): 1.895 ± 0.015 mPa·s | viscosity (298.15 K, 101.33 kPa, x1 = 0.0734): 1.866 ± 0.015 mPa·s | viscosity (298.15 K, 101.33 kPa, x1 = 0.0979): 1.849 ± 0.015 mPa·s | viscosity (298.15 K, 101.33 kPa, x1 = 0.1509): 1.832 ± 0.014 mPa·s | viscosity (298.15 K, 101.33 kPa, x1 = 0.1955): 1.824 ± 0.014 mPa·s | viscosity (298.15 K, 101.33 kPa, x1 = 0.2419): 1.827 ± 0.014 mPa·s | viscosity (298.15 K, 101.33 kPa, x1 = 0.2937): 1.837 ± 0.015 mPa·s | viscosity (298.15 K, 101.33 kPa, x1 = 0.3481): 1.851 ± 0.015 mPa·s | viscosity (298.15 K, 101.33 kPa, x1 = 0.3959): 1.868 ± 0.015 mPa·s | viscosity (298.15 K, 101.33 kPa, x1 = 0.4376): 1.884 ± 0.015 mPa·s | viscosity (298.15 K, 101.33 kPa, x1 = 0.4827): 1.901 ± 0.015 mPa·s | viscosity (298.15 K, 101.33 kPa, x1 = 0.54): 1.925 ± 0.015 mPa·s | viscosity (298.15 K, 101.33 kPa, x1 = 0.5983): 1.949 ± 0.015 mPa·s | viscosity (298.15 K, 101.33 kPa, x1 = 0.6416): 1.968 ± 0.015 mPa·s | viscosity (298.15 K, 101.33 kPa, x1 = 0.6954): 1.99 ± 0.016 mPa·s | viscosity (298.15 K, 101.33 kPa, x1 = 0.7531): 2.016 ± 0.016 mPa·s | viscosity (298.15 K, 101.33 kPa, x1 = 0.8095): 2.039 ± 0.016 mPa·s | viscosity (298.15 K, 101.33 kPa, x1 = 0.8656): 2.061 ± 0.016 mPa·s | viscosity (298.15 K, 101.33 kPa, x1 = 0.9083): 2.079 ± 0.016 mPa·s | viscosity (298.15 K, 101.33 kPa, x1 = 0.9447): 2.096 ± 0.016 mPa·s | viscosity (298.15 K, 101.33 kPa, x1 = 0.9742): 2.111 ± 0.017 mPa·s

Oc1cccc2ccccc12 + CCCO
viscosity (293.15 K, 101 kPa, x1 = 0.04): 2.564 ± 0.058 mPa·s | viscosity (293.15 K, 101 kPa, x1 = 0.08): 2.904 ± 0.065 mPa·s | viscosity (293.15 K, 101 kPa, x1 = 0.12): 3.349 ± 0.075 mPa·s | viscosity (293.15 K, 101 kPa, x1 = 0.16): 3.844 ± 0.085 mPa·s | viscosity (293.15 K, 101 kPa, x1 = 0.2): 4.423 ± 0.097 mPa·s | viscosity (303.15 K, 101 kPa, x1 = 0.04): 1.999 ± 0.046 mPa·s | viscosity (303.15 K, 101 kPa, x1 = 0.08): 2.245 ± 0.051 mPa·s | viscosity (303.15 K, 101 kPa, x1 = 0.12): 2.528 ± 0.057 mPa·s | viscosity (303.15 K, 101 kPa, x1 = 0.16): 2.863 ± 0.065 mPa·s | viscosity (303.15 K, 101 kPa, x1 = 0.2): 3.26 ± 0.073 mPa·s | viscosity (313.15 K, 101 kPa, x1 = 0.04): 1.592 ± 0.039 mPa·s | viscosity (313.15 K, 101 kPa, x1 = 0.08): 1.696 ± 0.041 mPa·s | viscosity (313.15 K, 101 kPa, x1 = 0.12): 1.867 ± 0.044 mPa·s | viscosity (313.15 K, 101 kPa, x1 = 0.16): 2.114 ± 0.049 mPa·s | viscosity (313.15 K, 101 kPa, x1 = 0.2): 2.396 ± 0.055 mPa·s | viscosity (323.15 K, 101 kPa, x1 = 0.04): 1.293 ± 0.034 mPa·s | viscosity (323.15 K, 101 kPa, x1 = 0.08): 1.403 ± 0.035 mPa·s | viscosity (323.15 K, 101 kPa, x1 = 0.12): 1.567 ± 0.038 mPa·s | viscosity (323.15 K, 101 kPa, x1 = 0.16): 1.748 ± 0.041 mPa·s | viscosity (323.15 K, 101 kPa, x1 = 0.2): 1.954 ± 0.045 mPa·s
